Data taken from US10849904B2, “Methods for treatment of retinal disease by photoreceptor gene expression modulation” (University of Washington, priority 2015, dated 2020).
Entries after “also recorded” stand apart in the source; their conditions may differ.

Experiments:
Type in all cases: cell-based
[1] = test system: Human retinal explants from 113 day post-conception fetuses; test: Human fetal retinal explant culture, qPCR for RHO expression; settings: 10 μM, vs DMSO
Experimental: Nr2e3 loss-of-function mutations lead to a reduction in rod gene expression. To determine whether the same was true for PR1 (FIG. 6D), explant cultures of P12 retina as above were treated and assayed for other rod photoreceptor genes. After 2 days in culture, PR1 decreased the expression of the rod specific genes Nrl, Nr2e3, Rho, Gnat1, and Pde6b compared to DMSO treatment by qPCR analysis (FIG. 6C). […] To determine the dose-response relationship between PR1 concentration and expression of rod genes, retinas from P12 mice were explanted in media containing DMSO or 0.1, 1, 5, or 10 μM PR1 for 2-3 days and assayed Nrl, Nr2e3, and Rho expression by qPCR. […] PR1 was tested to determine whether it could cause a reduction in Rho expression in human rod photoreceptors as well. Pairs of 113 day post-conception retinas were explanted in media with DMSO or 10 μM PR1 for 7 or 23 days. […]
RNA was isolated using TRIzol (Invitrogen) and cDNA was synthesized using the iScript cDNA synthesis kit (Bio-Rad) following an intervening DNase treatment with RQ1 RNase-free DNase (Promega). SSO Fast (Bio-Rad) was used for quantitative real-time PCR. For analysis, values were normalized to Gapdh and ΔΔCt between DMSO and compound-treated samples was expressed as percent of DMSO treated controls (100*2^ΔΔCt). […]

[2] = test system: Explants from P12 Nrl-eGFP mice; test: P12 Nrl-eGFP mouse retinal explants, 5 DIV, immunofluorescence and EdU
Experimental: Previous loss of function genetic data has shown that Nr2e3 is required for rod photoreceptor development, but it is not known whether there is a continuing requirement for Nr2e3 in mature rods. […] To further examine the effects of PR1 at these late developmental stages, the effects of PR1 on P12 retinal explants by immunohistochemical analysis were studied (FIG. 8A). Explants from P12 Nrl-eGFP mice were cultured for 5 days in either DMSO or 1 μM PR1 containing media, and then fixed and processed for immunofluorescent labeling with anti-rhodopsin and anti-S opsin antibodies.
To determine if PR1 affects retinal cells other than photoreceptors, bipolar cells (PKCα, Chx10), amacrine cells (HuCD), and Muller glia (Sox2) were quantified in explants treated with DMSO or 1 μM PR1 for 5 DIV. […] EdU (5-ethynyl-2′-deoxyuridine) was added to the cultures to determine whether PR1 might have a similar effect.
(§1) Intact retinas without RPE from mice of various strains and ages as indicated were explanted on 0.4 μm pore tissue culture inserts (Millipore) as previously described (Ueki, Y., et al., P53 is required for the developmental restriction in Muller glial proliferation in mouse retina. Glia, 2012. 60(10): p. 1579-89; Ueki, Y., et al., A transient wave of BMP signaling in the retina is necessary for Muller glial differentiation. Development, 2015. 142(3): p. 533-43. Full media (DMEM/F12 (1:1) containing 1% dialyzed FBS, 1% Pen Strep, 0.3% D+ glucose, 2% B27, and 1% N2) changes were performed every other day and small molecules were used at 0.1 μM to 10 μM. Where indicated, EdU (Invitrogen) was included in the media at 5 μg/mL and visualized by staining with the Click-iT EdU Alexa Fluor kit (Thermo Fisher Scientific). For human retinal explant cultures, tissue from 113 day post-conception fetuses was obtained from the University of Washington Birth Defects Laboratory and explanted on 0.4 μm pore tissue culture inserts (Millipore) in media (Neurobasal A with 1% FBS, 1% Pen Strep, 1% N2, 1% B27) containing 10 μM Photoregulin1 or an equal volume of DMSO.
Retinal explants or eyecups were fixed in 4% PFA in 1×PBS for 20 minutes at room temperature and then cryoprotected in 30% sucrose in 1×PBS overnight at 4° C. Samples were embedded in OCT (Sakura Finetek), frozen on dry ice, and then sectioned at 14-16 μm on a cryostat (Leica). Slides were blocked with a solution containing 10% Normal Horse Serum (Vector Labs) and 0.5% Triton X-100 (Sigma-Aldrich) in 1×PBS for 1 hour at room temperature and then stained overnight at 4° C. with primary antibodies diluted in blocking solution. Slides were washed three times with 1×PBS the following day and then incubated in secondary antibodies (Life Technologies) diluted in blocking solution for 2 hours at room temperature, stained with DAPI (Sigma-Aldrich), washed, and coverslipped using Fluoromount-G (SouthernBiotech). An Olympus FluoView FV1000 was used for confocal microscopy.

[3] = test system: intact retinas from P12 wild type mice; test: P12 mouse retinal explant culture, qPCR for rod gene expression; settings: P12 explants; for dose-response, Nrl, Nr2e3, and Rho expression: 2-3 days; for relative rhodopsin (Rho) expression: 1 μM, 2 days
Description: To identify functional Nr2e3 antagonists, compounds were cheminformatically searched and structural analogs of a putative Nr2e3 interacting compound with unknown function were collected. See FIGS. 2 and 4 for the structures of the compounds. The collected compounds were then screened in a physiologically relevant primary culture assay using intact retinas from postnatal day 12-13 (P12-13) C57BL/6 mice for suppression of Rho expression (See FIG. 6A). After a 2 day culture period with media containing DMSO or compounds at 1 μM, the retinas were collected and assessed Rho expression by qPCR. Rho was chosen because it is a well-described target of Nr2e3 in rod photoreceptors. […] This analysis also provided an initial structure-activity relationship.
Nr2e3 loss-of-function mutations lead to a reduction in rod gene expression. To determine whether the same was true for PR1 (FIG. 6D), explant cultures of P12 retina as above were treated and assayed for other rod photoreceptor genes. After 2 days in culture, PR1 decreased the expression of the rod specific genes Nrl, Nr2e3, Rho, Gnat1, and Pde6b compared to DMSO treatment by qPCR analysis (FIG. 6C). […] To determine the dose-response relationship between PR1 concentration and expression of rod genes, retinas from P12 mice were explanted in media containing DMSO or 0.1, 1, 5, or 10 μM PR1 for 2-3 days and assayed Nrl, Nr2e3, and Rho expression by qPCR. […] PR1 was tested to determine whether it could cause a reduction in Rho expression in human rod photoreceptors as well. Pairs of 113 day post-conception retinas were explanted in media with DMSO or 10 μM PR1 for 7 or 23 days. After 7 and 23 days in culture, PR1 decreased the expression of Rho compared to DMSO treatment (FIG. 6F), similar to the effect observed in mouse retinal explants.
as §1
RNA was isolated using TRIzol (Invitrogen) and cDNA was synthesized using the iScript cDNA synthesis kit (Bio-Rad) following an intervening DNase treatment with RQ1 RNase-free DNase (Promega). SSO Fast (Bio-Rad) was used for quantitative real-time PCR. For analysis, values were normalized to Gapdh and ΔΔCt between DMSO and compound-treated samples was expressed as percent of DMSO treated controls (100*2^ΔΔCt). Two-way Student's t-tests were performed on ΔCt values.

Cc1cc(C)cc(NC(=O)CCc2nc3sc4c(c3c(=O)[nH]2)CCCC4)c1 [PR1, N-(3,5-dimethylphenyl)-3-(4-oxo-5,6,7,8-tetrahydro-3H-[1]benzothiolo[2,3-d]pyrimidin-2-yl)propanamide]
Rho expression ([1]; 7 days in culture): decreased
Rho expression ([1]; 23 days in culture): decreased
number of S opsin+ cells in the ONL ([2]; P12 explants, 1 μM, 5 days): increase in the number of S opsin+ cells
rhodopsin staining in Nrl-GFP-positive rods ([2]; P12 explants, 1 μM, 5 days): dramatic decrease in rhodopsin staining
number of EdU labeled cells ([2]; P12 explants, 5 DIV, EdU in media): increase in the number of EdU labeled cells
migration of the Muller glial (Sox2+) nuclei into the ONL ([2]; explants, 1 μM, 5 DIV): increase in the migration
bipolar cells (PKCα, Chx10), amacrine cells (HuCD), and Muller glia (Sox2) ([2]; explants, 1 μM, 5 DIV, vs DMSO): No differences
dose-response, Nrl, Nr2e3, and Rho expression ([3]; 0.1 uM): Some effect
relative rhodopsin (Rho) expression ([3]; vs DMSO): substantially decrease Rho expression; also recorded: decreased
relative rhodopsin (Rho) expression ([3]; vs DMSO, listed as CA88): reducing rhodopsin expression
Crx expression ([3]; 2 days in culture, vs DMSO): did not significantly decrease
Gnat1 expression ([3]; 2 days in culture, vs DMSO): decreased
Gnb1 expression ([3]; 2 days in culture, vs DMSO): did not significantly decrease
Nr2e3 expression ([3]; 2 days in culture, vs DMSO): decreased
Nrl expression ([3]; 2 days in culture, vs DMSO): decreased
Pde6b expression ([3]; 2 days in culture, vs DMSO): decreased
dose-response, Nrl, Nr2e3, and Rho expression ([3]; higher concentrations (1, 5, or 10 μM)): statistically significant reductions
